pIC50: −log10 of the molar value. “And” between values parts separate entries of the source, which are not always exact repeats. Equal values may be shown once. “Also recorded” adds a separate entry of the source.
Legend:
L1210 cells [1] = assay: Protein synthesis (3H-leucine incorporation) in L1210 cells; assay type: cell-based, murine
Method: FIG. 17. Comparison of the concentration-dependent inhibitions of protein synthesis by the TT analog TT2 (●) and DAU (∘) in L1210 cells in vitro. […] Protein synthesis in vehicle-treated control cells was 13,812±1,070 cpm (100±8%; striped area). The blank value (2,436±298 cpm) for cells incubated and pulse-labeled at 2° C. with 2.5 μCi of ^3H-leucine has been substracted from the results.
Except when otherwise specified, the cells were incubated at 37° C. for 90 min in the presence or absence of drugs and then pulse-labeled for an additional 30 min with 1 μCi of [methyl-^3H]thymidine (50 Ci/mmol; Amersham Corp., Arlington Heights, Ill.) to estimate the rate of DNA synthesis. […] After drying the filters, the radioactivity bound to the acid-precipitable material was determined by liquid scintillation counting (LSC) in 10 ml of Bio-Safe NA (Researeh Products International Corp., Mount Prospect, Ill.).

L1210 cells [2] = assay: Nucleoside transport (30-sec cellular uptake) in L1210 cells; assay type: cell-based, murine
Method: FIG. 10. Concentration-dependent inhibition of nucleoside transport by the TT analog TT2 in L1210 cells in vitro. […] After washing thrice with PBS, intact cell pellets were harvested by centrifugation, incubated for 30 min in 1 ml of HLB containing 0.2% Triton X-100, and these lysates were mixed with scintillation cocktail and counted to estimate the cellular uptake of ^3H-thymidine. Results are expressed as % of ^3H-thymidine transported into vehicle-treated control cells over 30 sec (15,031±872 cpm; 100±6%; striped area).
FIG. 11. Comparison of the inhibitory effects of novel TT analogs on DNA synthesis (open) and nucleoside transport (striped) in L1210 cells in vitro. The cellular uptake of ^3H-thymidine (striped) and the rate of ^3H-thymidine incorporation into DNA (open) were determined in cells (1.38×10^6/0.5 ml of RPMI 1640 medium) respectively preincubated at 37° C. for 15 or 90 min in the presence or absence (control) of 7 μM concentrations of the indicated compounds. For the cellular transport of nucleosides, preincubated cells were then exposed to 1 μCi of ^3H-thymidine for 30 sec at 37° C. Results are expressed as % of ^3H-thymidine transported into vehicle-treated control cells over 30 sec (15,539±1,767 cpm; 100±11%; striped control). For DNA synthesis, preincubated cells were then pulse-labeled with 1 μCi of ^3H-thymidine for an additional 30 min at 37° C. Results are expressed as % of ^3H-thymidine incorporation into DNA in vehicle-treated control cells over 30 min (28,505±2,594 cpm; 100±9%; open control). The blank value (1,075±171 cpm) for cells incubated and pulse-labeled at 2° C. with 1 μCi of ^3H-thymidine has been substracted from the results. Bars: means±SD (n=3). ^aNot different from TT3, TT7, TT9 and TT11; ^bP<0.01, smaller than TT1 but not different from TT13; ^cnot different from control; ^dP<0.025, greater than TT1; ^eP<0.05, smaller than control.
FIG. 12. Irreversibility of the inhibitory effects of the novel TT analog TT2 on DNA synthesis (open) and nucleoside transport (striped) in L1210 cells in vitro. […] The cellular uptake of ^3H-thymidine (striped) and the rate of ^3H-thymidine incorporation into DNA (open) were determined in cells (1.64×10^6/0.5 ml of RPMI 1640 medium) respectively preincubated at 37° C. for 15 or 60 min in the presence or absence (control) of 10 and 25 μM TT2 or 25 μM H10. The protocol of the experiments and the determination of the results were identical to those of FIGS. 9 and 10, except that, after preincubation, either the drugs were maintained in the culture medium (+) or the cells were spun, washed, and resuspended in fresh medium in order to remove the drugs (−). After preincubation, vehicle-treated controls were similarly spun and washed. For the cellular transport of nucleosides, preincubated cells were then exposed, in the presence (+) or absence (−) of TT2 or H10, to 1 μCi of ^3H-thymidine for 30 sec at 37° C. Results are expressed as % of ^3H-thymidine transported into vehicle-treated control cells over 30 sec (11,054±754 cpm; 100±7%; striped control+; 14,486±1,260 cpm; 100±9%; striped control−). For DNA synthesis, preincubated cells were then pulse-labeled with 1 μCi of ^3H-thymidine for an additional 30 min at 37° C. in the presence (+) or absence (−) of TT2 or H10. Results are expressed as % of ^3H-thymidine incorporation into DNA in vehicle-treated control cells over 30 min (34,052±1,566 cpm; 100±5%; open control+; 28,811±2,506 cpm; 100±9%; open control−). The blank value (1,328±86 cpm) for cells incubated and pulse-labeled at 2° C. with 1 μCi of ^3H-thymidine has been substracted from the results. Bars: means±SD (n=3).
L1210 cells (about 1.5×10^6 cells/0.5 ml) were preincubated for 15 min at 37° C. in the presence or absence of TTs and then exposed to 1 μCi of ^3H-thymidine for only 30 sec to assess the cellular uptake of nucleoside over such very short period of time. […]

SMILES: COC1=CC(=O)C2=C(C1=O)C1C3=C(C(=O)C=CC3=O)C2c2ccccc21 (centres unmarked) [TT2, 2-Methoxy-9,10-dihydro-9,10-[1′,2′]benzenoanthracene-1,4,5,8-tetraone]
- pIC50 (L1210 cells [1]; 3 h drug + 1 h pulse-labeling, read-out: IC50, inhibition of protein synthesis in L1210 cells): 5.22 and ~5.22
- % inhibition of nucleoside transport (L1210 cells [2]; 10 μM TT2, 15-min preincubation): 67%
- effect on nucleoside transport (L1210 cells [2]; 25 μM TT2): totally inhibited
- % inhibition of nucleoside transport (L1210 cells [2]; 25 μM TT2, 15-min preincubation): 93%
- reversibility of the inhibition of nucleoside transport upon drug removal (L1210 cells [2]; 10 and 25 μM TT2 or 25 μM H10, 15-min preincubation): irreversible
- pIC50 (L1210 cells [2]; 15-min pretreatment, 30-sec uptake, read-out: IC50, inhibition of cellular transport of nucleosides): 5.22

SMILES: COC1=C(Br)C(=O)C2=C(C1=O)C1C3=C(C(=O)C=C(N(C)C)C3=O)C2c2ccccc21 (centres unmarked) [TT16, 2-Bromo-3-methoxy-6-(dimethylamino)-9,10-dihydro-9,10-[1′,2′]benzenoanthracene-1,4,5,8-tetraone]
- potency on cellular transport of adenosine and thymidine compared with TT2 (L1210 cells [2]; FIG. 13): as potent as TT2

SMILES: COC(=O)C1=C(C(=O)OC)C[C@H]2[C@@H](C1)[C@@H](O)C1=C(C3C4=C(C1c1ccccc13)[C@@H](O)[C@H]1CC(C(=O)OC)=C(C(=O)OC)C[C@H]1[C@H]4O)[C@H]2O [TT12, (4aS*,5S*,7R*,12S*,14R*,7aR*,11aS*,14aR*)-Tetramethyl 1,4,4a,5,6,7,7a,8,11,11a,12,13,14,14a-tetradecahydro-5,7,12,14-tetrahydroxy-6,13-[1′,2′]benzenopentacene-2,3,9,10-tetracarboxylate]
- effect on nucleoside transport (L1210 cells [2]; 7 μM, 15 min): alter neither

SMILES: COC(=O)C1=C(C(=O)OC)C[C@H]2C(=O)C3=C(C(=O)[C@H]2C1)C1C2=C(C(=O)[C@H]4CC(C(=O)OC)=C(C(=O)OC)C[C@H]4C2=O)C3c2ccccc21 [TT4, (4aS*,7aR*,11aS*,14aR*)-Tetramethyl 1,4,4a,5,6,7,7a,8,11,11a,12,13,14,14a-tetradecahydro-5,7,12,14-tetraoxo-6,13-[1′,2′]benzenopentacene-2,3,9,10-tetracarboxylate]
- effect on nucleoside transport (L1210 cells [2]; 7 μM, 15 min): alter neither

SMILES: COc1cccc2c1C(=O)c1c(O)c3c(c(O)c1C2=O)C[C@@](O)(C(C)=O)C[C@@H]3O[C@H]1C[C@H](N)[C@H](O)[C@H](C)O1 [DAU, daunomycin, reference compound]
- times DAU inhibits protein synthesis more effectively than TT2 (L1210 cells [1]; L1210): ~3 times
- effect of DAU on cellular transport of nucleosides (L1210 cells [2]; 15-min treatment, 30-sec uptake, 10 μM DAU): inactive; also recorded: totally unable

Reference: patent US6828450B2, “Triptycene analogs” (Kansas State University Research Foundation, priority 2000, dated 2004)
